Experimental data as given in PubChem BioAssay AID2060504 (Molecular Pharmacology Branch, DTP, NCI, 2025).
Values joined by “and” are separate entries in the source; they are usually repeats but may differ in a detail not shown here. Equal entries are not always repeated.

Test system: 636577-100-R-J1-PDC complex spheroid viability
Assay: Anticancer human tumor 636577-100-R-J1-PDC patient-derived endometrial adenocarcinoma cell line growth inhibition [GQUAD]
Conditions: for viability, T/C: stronger effect = lower value; active = viability on the fitted dose curve at most 10% of control; inactive = the rest
Text: DNA G-quadruplex Stabilizer Agents in Combinations in Complex Spheroids
A high-throughput screen of multi-cell type tumor spheroids was designed to identify active combinations of DNA G-quadruplex stabilizer agents and targeted small molecules. Complex spheroids include a stromal component modeled by human endothelial cells (HUVEC) and fibroblasts modeled by human mesenchymal stem cells (MSCs). The concentration ranges selected for each drug and investigational agent were based upon clinically achievable concentrations if the clinical Cmax of the agent was known.
Compounds. The drugs and investigational agents: pidnarulex (CX-5461; NSC782164), APTO-253 (NSC789042), BRACO-19 (NSC847499), peposertib (NSC802822), ceralasertib (NSC780249), elimusertib (NSC800525), camonsertib (NSC841442), AZD-1390 (NSC803789), olaparib (NSC753686), talazoparib (NSC767125), ART-558 (NSC835418), sotorasib (NSC818433), MRTX-1133 (NSC836407), SN-38 (NSC673596), topotecan (NSC609699), etoposide (NSC141540), doxorubicin (NSC123127), gemcitabine (NSC613327), 5-fluorouracil (NSC19893), paclitaxel (NSC125973), vemurafenib (NSC761431), panobinostat (NSC761190), R-306465 (JNJ-16241199; NSC773264), adavosertib (NSC754352), TP-3654 (NSC805149), carboplatin (NSC241240), KSQ-4279 (NSC840948), and staurosporine (NSC755774) were obtained from the National Cancer Institute (NCI) Developmental Therapeutics Program Chemical Repository (34). The FDA-approved anticancer drug set is available from the NCI Developmental Therapeutics Program. […] The stock solutions were prepared in dimethyl sulfoxide (DMSO, Sigma-Aldrich, St. Louis, MO, cat. D2650) at 800-fold the tested concentration and stored at -70 degrees C prior to their use. All drugs and investigational agents were tested over a range starting from a high concentration at or near the clinical Cmax and decreasing in half-log increments. If the clinical Cmax for an agent had not been determined, the highest concentration tested was 10 microM.
2.3 Cell Culture. All cells were maintained in an incubator at 37 degrees C and 5% CO2 with 95% humidity. The PDC lines were cultured according to standard operating procedures established by the NCI PDMR. All PDCs were thawed and cultured in Matrigel-coated flasks prepared with a working solution of 1X Ham's F-12 nutrient mix, without supplementation (Invitrogen, cat. 11765054), 100 U/mL penicillin-streptomycin (Invitrogen, cat. 15140122), and 2.5% Matrigel (Corning Inc., cat. 354248) for the first three passages. The 857933-349-R-J2-PDC line was cultured in 6C/Colon 1B media, which includes advanced DMEM/F-12 (Thermo Fisher Scientific, cat. 12634028), 10 mM HEPES (Thermo Fisher Scientific, cat. 15630080), 1X GlutaMAX supplement (Thermo Fisher Scientific, cat. 35050061), 0.1 mg/mL primocin (InvivoGen, cat. ant-pm-2), 10% defined fetal bovine serum, heat inactivated (HyClone Laboratories Inc., cat. SH30070.03HI), 50% L-WRN conditioned media (ATCC, cat. CRL-3276), 1.25 mM N-Acetyl-L-cysteine (Sigma-Aldrich, cat. A9165), 10 mM nicotinamide (Sigma-Aldrich, cat. N0636), 1X B-27 supplement (Thermo Fisher Scientific, cat. 17504044), 1X N-2 supplement (Thermo Fisher Scientific, cat. 17502048), 10 microM Y-27632 dihydrochloride (Tocris Bioscience, cat. 1254), and 50 ng/mL human EGF recombinant protein (Thermo Fisher Scientific, cat. PHG0311). The 485176-168-R4-J1-PDC line was cultured in Panc media, which includes all 6C/Colon 1B media components plus 100 ng/mL human FGF-10 (Thermo Fisher Scientific, cat. 100-26), 500 nM SB-431542 (Selleckchem, cat. S1067), and gastrin (Tocris, cat. 3006).
[…]

[1] = compound alone, run of 03/26/2024
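Note: viability read after seven days of drug exposure.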
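Throughout, for viability, T/C: luminescence signal used as a proxy for viable cells; 100% = DMSO vehicle control wells.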

CN(C)c1ccc(Nc2c3ccc(NC(=O)CCN4CCCC4)cc3nc3cc(NC(=O)CCN4CCCC4)ccc23)cc1
active: viability, T/C (compound 10 µM) 6.05% [middle of 12 runs]
2.41 µM [middle of 11 runs]: IC50 [1]
inactive: viability, T/C (compound 0.0316 µM) 104% [middle of 12 runs] | viability, T/C (compound 1 µM) 82.9% [middle of 12 runs] | viability, T/C (compound 3.16 µM) 40.7% [middle of 12 runs]

CC[C@@]1(O)C(=O)OCc2c1cc1n(c2=O)Cc2cc3c(CN(C)C)c(O)ccc3nc2-1
inactive: viability, T/C (compound 0.000999 µM) 85.3% | viability, T/C (compound 0.00316 µM) 80.8% | viability, T/C (compound 0.00999 µM) 82.9% | viability, T/C (compound 0.0316 µM) 40.3% | viability, T/C (compound 0.0999 µM) 19.1% | viability, T/C (compound 0.316 µM) 22%
0.0243 µM: IC50 (curve of compound)

Cc1[nH]c2ccc(F)cc2c1-c1nc2c3cccnc3c3ncccc3c2[nH]1
2.16 µM [middle of 4 runs]: IC50 [1]
inactive: viability, T/C (compound 1 µM) 86.1% [middle of 9 runs] | viability, T/C (compound 3.16 µM) 38.6% [middle of 9 runs]
> 10 µM and 3.07 µM and 3.21 µM: IC50 (compound alone, run of 03/18/2024)

CC1COCCN1c1cc(C2(S(C)(=N)=O)CC2)nc(-c2ccnc3[nH]ccc23)n1 (stereo not given)
1.04 µM and 2.2 µM: IC50 (curve of compound)
inactive: viability, T/C (compound 0.0316 µM) 90.3% and 97.2% and 58.2% | viability, T/C (compound 0.1 µM) 91.5% and 90.5% and 90.6% | viability, T/C (compound 0.316 µM) 93% and 90.3% and 73.6% | viability, T/C (compound 1 µM) 50.8% and 49.6% and 41.9% | viability, T/C (compound 3.16 µM) 22.6% and 22.4% and 54.3% | viability, T/C (compound 10 µM) 14.2% and 12.7% and 14.7%

C=CC(=O)N1CCN(c2nc(=O)n(-c3c(C)ccnc3C(C)C)c3nc(-c4c(O)cccc4F)c(F)cc23)C(C)C1 (stereo not given) + Cc1cnc(CNC(=O)c2c(=O)c3ccc(N4CCCN(C)CC4)nc3n3c2sc2ccccc23)cn1
< 0.0316 µM: IC50 (curve of first compound, second compound 0.0316 µM) | IC50 (curve of first compound, second compound 0.1 µM) | IC50 (curve of first compound, second compound 0.316 µM) | IC50 (curve of first compound, second compound 1 µM) | IC50 (curve of first compound, second compound 3.16 µM) | IC50 (curve of first compound, second compound 10 µM)
inactive: viability, T/C (second compound 0.0316 µM, first compound 0.0316 µM) 41.6% | viability, T/C (second compound 0.0316 µM, first compound 0.1 µM) 45.5% | viability, T/C (second compound 0.0316 µM, first compound 0.316 µM) 43.1% | viability, T/C (second compound 0.0316 µM, first compound 1 µM) 45.7% | viability, T/C (second compound 0.0316 µM, first compound 3.16 µM) 51% | viability, T/C (second compound 0.0316 µM, first compound 10 µM) 43% | viability, T/C (second compound 0.1 µM, first compound 0.0316 µM) 28.8% | viability, T/C (second compound 0.1 µM, first compound 0.1 µM) 30.6% | viability, T/C (second compound 0.1 µM, first compound 0.316 µM) 31.7% | viability, T/C (second compound 0.1 µM, first compound 1 µM) 33.1% | viability, T/C (second compound 0.1 µM, first compound 3.16 µM) 35.1% | viability, T/C (second compound 0.1 µM, first compound 10 µM) 28.1% | viability, T/C (second compound 0.316 µM, first compound 0.0316 µM) 24.7% | viability, T/C (second compound 0.316 µM, first compound 0.1 µM) 25.1% | viability, T/C (second compound 0.316 µM, first compound 0.316 µM) 25.2% | viability, T/C (second compound 0.316 µM, first compound 1 µM) 29.9% | viability, T/C (second compound 0.316 µM, first compound 3.16 µM) 31.1% | viability, T/C (second compound 0.316 µM, first compound 10 µM) 28% | viability, T/C (second compound 1 µM, first compound 0.0316 µM) 24.6% | viability, T/C (second compound 1 µM, first compound 0.1 µM) 22.8% | viability, T/C (second compound 1 µM, first compound 0.316 µM) 24.1% | viability, T/C (second compound 1 µM, first compound 1 µM) 25.4% | viability, T/C (second compound 1 µM, first compound 3.16 µM) 21.7% | viability, T/C (second compound 1 µM, first compound 10 µM) 25.7% | viability, T/C (second compound 3.16 µM, first compound 0.0316 µM) 24% | viability, T/C (second compound 3.16 µM, first compound 0.1 µM) 21.5% | viability, T/C (second compound 3.16 µM, first compound 0.316 µM) 25.9% | viability, T/C (second compound 3.16 µM, first compound 1 µM) 27.9% | viability, T/C (second compound 3.16 µM, first compound 3.16 µM) 29.5% | viability, T/C (second compound 3.16 µM, first compound 10 µM) 26.8% | viability, T/C (second compound 10 µM, first compound 0.0316 µM) 21.5% | viability, T/C (second compound 10 µM, first compound 0.1 µM) 22.9% | viability, T/C (second compound 10 µM, first compound 0.316 µM) 23.9% | viability, T/C (second compound 10 µM, first compound 1 µM) 22.1% | viability, T/C (second compound 10 µM, first compound 3.16 µM) 26.7% | viability, T/C (second compound 10 µM, first compound 10 µM) 25.2%
